Measurements: PubChem BioAssay (NCI)
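Compound exposure: 48 hours, 5 concentrations, 96-well plates. TGI is the concentration that stops growth completely.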

Key:
Experiment in all cases: DTP human tumour cell line panel, 48 h
IGROV1 ovarian = test system: IGROV1 ovarian
PC-3 prostate = test system: PC-3 prostate
COLO 205 colon = test system: COLO 205 colon
UACC-257 melanoma = test system: UACC-257 melanoma
MDA-MB-231 breast = test system: MDA-MB-231 breast
SN12C renal = test system: SN12C renal
U251 CNS = test system: U251 CNS
HS 578T breast = test system: HS 578T breast
NCI/ADR-RES ovarian = test system: NCI/ADR-RES ovarian
TK-10 renal = test system: TK-10 renal
OVCAR-8 ovarian = test system: OVCAR-8 ovarian
NCI-H460 lung = test system: NCI-H460 lung
SF-539 CNS = test system: SF-539 CNS
CAKI-1 renal = test system: CAKI-1 renal
UACC-62 melanoma = test system: UACC-62 melanoma
SF-295 CNS = test system: SF-295 CNS
BT-549 breast = test system: BT-549 breast
HCT-15 colon = test system: HCT-15 colon
MDA-N = test system: MDA-N
RPMI-8226 leukemia = test system: RPMI-8226 leukemia

| SMILES | TGI (IGROV1 ovarian) | TGI (PC-3 prostate) | TGI (COLO 205 colon) | TGI (UACC-257 melanoma) | TGI (MDA-MB-231 breast) | TGI (SN12C renal) | TGI (U251 CNS) | TGI (HS 578T breast) | TGI (NCI/ADR-RES ovarian) | TGI (TK-10 renal) | TGI (OVCAR-8 ovarian) | TGI (NCI-H460 lung) | TGI (SF-539 CNS) | TGI (CAKI-1 renal) | TGI (UACC-62 melanoma) | TGI (SF-295 CNS) | TGI (BT-549 breast) | TGI (HCT-15 colon) | TGI (MDA-N) | TGI (RPMI-8226 leukemia) |
| --- | --- | --- | --- | --- | --- | --- | --- | --- | --- | --- | --- | --- | --- | --- | --- | --- | --- | --- | --- | --- |
| Cc1cn(C2CC(N=[N+]=[N-])C(COP(=O)(O)OCC3OC(n4cc(F)c(=O)[nH]c4=O)CC3O)O2)c(=O)[nH]c1=O (stereo unspecified) | 9.57 µM | > 100 µM | > 100 µM | > 100 µM | > 100 µM | > 100 µM | > 100 µM | > 100 µM | > 24.6 µM | > 100 µM | > 100 µM | > 100 µM | > 44 µM | > 100 µM | > 100 µM | > 100 µM | > 100 µM | > 100 µM | > 100 µM |  |
| Cc1ccc(S(=O)(=O)N/N=C2/CCC3(O)CC2(C)CCC2[C@H]3CC2(C)C)cc1 (stereo partly specified) | 74.3 µM | 65.1 µM | 33.1 µM | > 100 µM |  | > 100 µM | 36 µM | > 100 µM | > 100 µM | > 100 µM | > 100 µM | 64.3 µM |  | > 100 µM | 60 µM | 93 µM | 86.4 µM | > 100 µM | 92 µM | > 100 µM |
| O=[N+]([O-])c1ccc(-c2nn3c(C45CC6CC(CC(C6)C4)C5)nnc3s2)c(Cl)c1 | > 100 µM | > 100 µM | > 100 µM |  | > 100 µM | > 100 µM | > 100 µM | > 100 µM | > 100 µM | > 100 µM | > 100 µM | > 100 µM | > 100 µM | > 100 µM | > 100 µM | > 100 µM |  | > 100 µM | > 100 µM | > 100 µM |
| O=C1NCN(c2ccccc2)C12CCN(CC1COc3ccccc3O1)CC2 (stereo unspecified) | > 100 µM | > 100 µM | > 100 µM | > 100 µM | > 100 µM | > 100 µM | 79.6 µM | 71.8 µM | > 100 µM | > 100 µM | > 100 µM | > 100 µM | > 100 µM | > 100 µM | > 100 µM | > 100 µM |  | > 100 µM | > 100 µM | > 100 µM |
| COc1ccc(-c2nc(Nc3ccccc3)sc2Cc2sc(Nc3ccccc3)nc2-c2ccc(OC)cc2)cc1 | > 100 µM |  | > 100 µM | > 100 µM | > 100 µM | > 100 µM | > 100 µM |  | > 100 µM | > 100 µM | > 100 µM | > 100 µM | > 100 µM | > 100 µM | > 100 µM |  | > 100 µM | > 100 µM | > 100 µM | > 100 µM |
| CC(C)(O)c1cc2c(cc1C(C)(C)O)-c1ccccc1-2 | > 100 µM | > 100 µM | > 100 µM | > 100 µM | > 100 µM | > 100 µM | > 100 µM | > 100 µM | > 100 µM | > 100 µM | > 100 µM | > 100 µM | > 100 µM | > 100 µM | > 100 µM | > 100 µM | > 100 µM | > 100 µM |  | > 100 µM |
| Cc1cc(O)c(/C=N/C(=S)Nc2ccc(S(N)(=O)=O)cc2)c(=O)o1 | > 100 µM |  | > 100 µM | > 100 µM | > 100 µM | > 100 µM | > 100 µM |  | > 100 µM | > 100 µM | > 100 µM | > 100 µM | > 100 µM | > 100 µM | > 100 µM | > 100 µM | > 100 µM | > 100 µM | > 100 µM |  |
| Nc1ccccc1C(=O)N=Nc1c(O)[nH]c2ccccc12 | > 100 µM | > 100 µM | > 100 µM | > 100 µM | > 100 µM | > 100 µM | > 100 µM | 73.8 µM | > 100 µM | > 100 µM | > 100 µM | > 100 µM | > 100 µM | > 100 µM | > 100 µM | > 100 µM | > 100 µM | > 100 µM | > 100 µM |  |
| Cc1ccc(S(=O)(=O)N2CCNCCN(S(=O)(=O)c3ccc(C)cc3)CCNCC2)cc1 | 42.9 µM |  | 31.1 µM | 33 µM | 60.4 µM | > 100 µM | 41.1 µM | 35.7 µM | > 100 µM | 44 µM | 36.9 µM | 36.8 µM | 34.7 µM | 73.5 µM | 34.5 µM | 32 µM | 47.1 µM | > 100 µM | 40.9 µM |  |
| CC1=CCC(C(C)(C)NC(=O)c2ccccc2)C/C1=N/O (stereo unspecified) | > 100 µM | > 100 µM | > 100 µM | > 100 µM | > 100 µM | > 100 µM | > 100 µM |  |  | > 100 µM | > 100 µM | > 100 µM | > 100 µM |  | > 100 µM | > 100 µM | > 100 µM | > 100 µM | > 100 µM |  |
| O=[N+]([O-])c1cccc2nccc(NCCN3CCOCC3)c12 | 45.1 µM | 39.1 µM | 49 µM | 29 µM | 71.1 µM | > 48 µM | > 53.9 µM | 57.6 µM | > 100 µM | > 48.4 µM | > 54.2 µM | 32.5 µM | 57.2 µM | 20.2 µM |  | 25.6 µM |  | > 46.9 µM | 61.4 µM | > 63.5 µM |
| C[C@@H]1CC[C@H]2[C@H](C)C(OC3O[C@@H]4O[C@@]5(C)CC[C@H]6[C@H](C)CC[C@@H]([C@@H]3C)[C@@]46O5)O[C@@H]3O[C@@]4(C)CC[C@@H]1[C@]32O4 (stereo partly specified) |  | > 100 µM | > 100 µM | > 100 µM | > 100 µM | > 100 µM | > 100 µM | > 100 µM |  | > 100 µM | > 100 µM | > 100 µM | > 100 µM | > 100 µM | > 100 µM | > 100 µM | > 100 µM | > 100 µM | > 100 µM | > 100 µM |
